Experimental data as given in patent publication US11965034B2, “Antifibrotic activity of CD47 blockade in the liver” (The Board of Trustees of the Leland Stanford Junior …, priority 2017, dated 2024).

Experiments:
[1] = system: c-Jun-induced migration of bone marrow-derived stromal cells; assay: Transwell migration assay of c-Jun-induced bone marrow-derived stromal cells (in vitro inhibitory screen); format: cell-based, mouse; conditions: bone marrow-derived stromal cells from c-Jun-inducible mice, dox induced
Text: Functional evaluation of signaling pathways mediating the fibrogenic response. We next wished to assess the functional relevance of the signaling pathway rewiring induced by transcriptional activation of c-Jun. To enable systematic pharmacological interrogation we sought to develop a c-Jun-dependent in vitro assay. We assessed two cell biological parameters in cultured bone marrow-derived stromal cells from c-Jun-inducible mice. First, we assessed cell growth and observed a shortening of the cell doubling time from about […] in control to about 2 days in c-Jun-induced fibroblasts (FIG. 6A). Second, we measured cell migration of bone marrow-derived stromal cells in a transwell migration assay as a functional readout of the c-Jun induction and observed a 100-fold increase in migration at 2 hours and a 1000-fold increase at 24 hours in c-Jun induced cells versus uninduced cells (FIG. 6B).
Given its much greater dynamic range, we then tested a series of small molecule inhibitors in the transwell migration assay. […]
Transwell migration and proliferation assays. For transwell migration assays Costar transwell chambers were used according to the manufacturer's directions and transmigrated adherent cells were fixed and stained and counted by microscopy after periods of 2 hrs and 24 hrs. […]

[2] = system: c-Jun induced mice (bone marrow and skin fibrosis); assay: Systemic c-Jun induced bone marrow and skin fibrosis in vivo; design: species or system mouse; conditions: systemic c-Jun induction, drug i.p.
Text: Blockade of the VEGF and PI3K pathways reverse marrow and skin fibrosis in vivo. Encouraged by these findings, we sought to evaluate the efficacy of blocking the PI3K-AKT pathway in c-Jun mediated fibrosis in vivo. Wortmannin, a potent PI3K inhibitor, was systemically administered to mice for 14 days that were induced to express c-Jun two days prior to drug. […] Any effects on gastroesophageal or bladder were not assessed as the fibrosis in these organs takes longer to develop. Both Rosa26-rtTA control mice were treated with dox and c-Jun-inducible mice were treated with PBS. No fibrosis developed in either control condition in lung or other organs over the same time span. Thus, the PI3K and VEGFR pathways are critical mediators of c-Jun-induced fibrosis in mice and may be also involved in the development of human fibrosing conditions.
Tissue processing. Animals were sacrificed at times indicated based on an APLAC-approved protocol that includes assessment of morbidity by >10% loss of weight, scruffy appearance and lethargy. […] Images were analyzed in Adobe Photoshop (Adobe Systems, San Jose, CA). […] Flow cytometry was performed on a FACS Aria cytometer (BD Biosciences, San Jose, CA), at least 10,000 events were acquired, and data were analyzed using FlowJo software. […]

Q: `CCN(CC)CCCCNc1ncc2cc(-c3cc(OC)cc(OC)c3)c(NC(=O)NC(C)(C)C)nc2n1` [PD173074] was tested. Which c-Jun-induced migration [1] did it give?
A: The c-Jun-induced migration was “abolish”.

Q: What about the bone marrow fibrosis [2] of the same compound?
A: Its bone marrow fibrosis is “significantly decreased”.

Q: What about the “skin fibrosis (dermal skin thickening and collagen deposition)” value [2] of the same compound?
A: Its value is “but not skin fibrosis”.
